Drawing on publication PMC6586847, “ATP binds and inhibits the neurodegeneration-associated fibrillization of the FUS RRM domain” (Communications Biology, 2019), this text covers Kd for 3 molecules.

The experiment deals with T1, FUS RRM domain (Homo sapiens, UniProt P35637).
T1 construct: RRM domain (285–370)
T1 sequence (P35637 284-371 limits assumed): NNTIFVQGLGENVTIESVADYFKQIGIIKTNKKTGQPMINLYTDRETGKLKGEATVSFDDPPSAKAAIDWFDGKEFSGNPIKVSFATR
Nature of the experiment: 1H-15N HSQC NMR titration, one-site fit of chemical shift differences. It counts as binding.
The Kd is the constant that tells how readily two partners part at equilibrium. For `Nc1ncnc2c1ncn2[C@@H]1O[C@H](COP(=O)(O)OP(=O)(O)OP(=O)(O)O)[C@@H](O)[C@H]1O` [ATP], the dissociation constant (Kd) was 3.77 ± 0.49 mM. Regarding `O=P(O)(O)OP(=O)(O)OP(=O)(O)O` [PPP], the Kd was found to be 12.6 ± 3.53 mM.

`Nc1ncnc2c1ncn2[C@@H]1O[C@H](COP(=O)(O)O)[C@@H](O)[C@H]1O` [AMP]: the Kd is 17.2 ± 2.61 mM.
